The target of assay [1] is MCP protein (Human cytomegalovirus, UniProt P16729). To be noted: increasing concentrations of peptide (0.1 to 10 μg), FIG. 2.
Procedure: To investigate the interaction between the UL80.5 peptide and MCP, an ELISA assay was developed. For this purpose, a 96 well microtiter plate (Nunc—Immuno Maxisorp) was coated with 100 μl per well of a 1/50 dilution (in carbonate buffer: 40 mM NaCO3, 36 mM NaHCO3, 3mM Na Azide pH 9.6) of recombinant baculovirus supernatant containing MCP (prepared as described above). The plate was incubated at 37° C. for 2 hours. The plate was then washed 4-5 times in 200 μl per well of PBS (1.37 M NaCl, 80 mM Na2HPO4, 26.8 KCl, 14.7 mM KH2PO4, pH 7.0) containing 0.2 % Triton X-100, followed by incubation with 0.1 μg of UL80.5 peptide (SEQ ID NO:3) diluted in carbonate buffer for 1 hour at 37° C. The plate was then washed to remove any unbound peptide, and subsequent nonspecific binding blocked by the addition of 200 μl of 1% casein block (Pierce; Rockford, Ill.) 3 times for 30 seconds each at room temperature. The plate was washed as before, and 200 μl of a primary antipeptide antibody (prepared as described above) diluted 1/5000 in wash buffer (PBS containing 0.2% Triton X-100) was added and incubated for 1 hour at room temperature. […] Following a 30 minute room temperature incubation in the dark, the plate was read at 450 nm on a microtiter plate reader. […]
The target of assay [2] is T1, UL80.5 gene product/MCP interaction (Human cytomegalovirus, UniProt P16729).
T1 construct: Recombinant baculovirus Autographa californiica nuclear polyhedrosis virus expressing full-length CMV MCP; made in house; host or cells: Sf9 insect cells infected with recombinant baculovirus; crude clarified supernatant used for coating
Kind of assay: competitive binding assay (ELISA): inhibition of UL80.5 gene product/MCP interaction. The note with it: 0.1 μg of UL80.5 peptide; compound 0.4 to 50 μM; average of six independent experiments (FIG. 3); read-out: average IC50 (concentration at which binding is reduced by 50%). Set-up: species or system CMV. As to the method:
Inhibitor activity was detected using a competitive binding assay. Scaffolding polypeptide and the compound to be tested are added sequentially or simultaneously to a microtiter plate precoated with full-length MCP. A primary antibody specific for the scaffolding polypeptide is then added, followed by a labeled secondary antibody directed against the primary antibody, and signal from the label measured. If the compound is unable to compete for binding, then the peptide binds to MCP and a signal is detected. […] In all assays a background control is included in which no peptide is added, but all other reagents are identical. In addition, a set of samples in which no compound is added is also included. This value is set at 100% and the percent inhibition is calculated relative to this number. […]
In order to determine if potential inhibitors of UL80.5 gene product/MCP interaction could be detected with this assay, compounds were assayed for activity.
In order to assay for inhibitors in a high throughput manner, the ELISA assay described above was modified. […] The plates were washed 6 times, and 50 μl of Wallac enhancement solution (Wallac; Gaithersburg, Md.) added, and the plate shaken for 10 minutes, before being read on a Wallac VICTOR microtiter plate reader (Wallac; Gaithersburg, Md.).

Consider “NH2-Ala-Ser-Gln-Ser-Pro-Pro-Lys-Asp-Met-Val-Asp-Leu-Asn-Arg-Arg-Ile-Phe-Val-Ala-Ala-Leu-Asn-Lys-Leu-Glu-COOH [UL80.5 peptide]”, for which the “concentration of peptide at which 50% binding to MCP occurred” value in assay [1] came to 0.3 µg.

Turning to `NCCc1c[nH]c2ccc(-c3ccc4ccccc4c3)cc12` [Target compound 6], the IC50 in assay [2] is 4.2 µM.

Source of the values: US20020004198A1, “Novel anti-infectives” (priority 1998, published 2002).
